Data set [1] deals with Euschistus heros (Neotropical brown stink bug). As to the kind of experiment: Example B8: Euschistus heros, soybean leaves sprayed. The data set is classed as in vivo. The note with it: 120 h, application rate 200 ppm, N2 nymphs, 5 days after infestation, read-out: effect in at least one of the two categories (mortality or growth inhibition). On the procedure:
Example B8: Euschistus Heros (Neotropical Brown Stink Bug)
Soybean leaves on agar in 24-well microtiter plates were sprayed with aqueous test solutions prepared from 10′000 ppm DMSO stock solutions. After drying the leaves were infested with N2 nymphs. The samples were assessed for mortality and growth inhibition in comparison to untreated samples 5 days after infestation.

The subject of data set [2] is Diabrotica balteata (Corn root worm). As to the kind of experiment: Example B4: Diabrotica balteata, maize sprouts sprayed. The data set is classed as in vivo. The note with it: 96 h, application rate 200 ppm, L2 larvae, 4 days after infestation, read-out: effect in at least one of the two categories (mortality or growth inhibition). Here is the method: Example B4: Diabrotica Balteata (Corn Root Worm)
Maize sprouts placed onto an agar layer in 24-well microtiter plates were treated with aqueous test solutions prepared from 10′000 ppm DMSO stock solutions by spraying. After drying, the plates were infested with L2 larvae (6 to 10 per well). The samples were assessed for mortality and growth inhibition in comparison to untreated samples 4 days after infestation.

In data set [3] the test system is Myzus persicae (Green peach aphid). The data set is described as follows: Example B6: Myzus persicae, roots of pea seedlings in test solution. The data set is classed as in vivo. The settings on record: 144 h, test rate 24 ppm, mixed ages, 6 days after placing seedlings into test solutions. On the procedure:
Example B6: Myzus Persicae (Green Peach Aphid)
Roots of pea seedlings infested with an aphid population of mixed ages were placed directly into aqueous test solutions prepared from 10′000 DMSO stock solutions. The samples were assessed for mortality 6 days after placing seedlings into test solutions.

Data set [4] has the same test system. The data set is described as follows: Example B5: Myzus persicae, sunflower leaf discs sprayed. The note with it: foliar, 144 h, application rate 200 ppm, mixed ages, 6 days after infestation. The class given is in vivo. On the procedure: Example B5: Myzus Persicae (Green Peach Aphid)
Sunflower leaf discs were placed onto agar in a 24-well microtiter plate and sprayed with aqueous test solutions prepared from 10′000 ppm DMSO stock solutions. After drying, the leaf discs were infested with an aphid population of mixed ages. The samples were assessed for mortality 6 days after infestation.

The test system of data set [5] is Plutella xylostella (Diamond back moth). The data set is described as follows: Example B3: Plutella xylostella, artificial diet. The settings on record: 120 h, application rate 200 ppm, L2 larvae, 5 days after infestation, read-out: effect in at least one of the two categories (mortality or growth inhibition). The class given is in vivo. On the procedure: Example B3: Plutella Xylostella (Diamond Back Moth)
24-well microtiter plates with artificial diet were treated with aqueous test solutions prepared from 10′000 ppm DMSO stock solutions by pipetting. After drying, the plates were infested with L2 larvae (10 to 15 per well). The samples were assessed for mortality and growth inhibition in comparison to untreated samples 5 days after infestation.

Data set [6] has as its system Bemisia tabaci (Cotton white fly). The data set is described as follows: Example B7: Bemisia tabaci, cotton leaf discs sprayed. The data set is classed as in vivo. The note with it: foliar, 144 h, application rate 200 ppm, adult white flies, 6 days after incubation. Here is the method: Example B7: Bemisia Tabaci (Cotton White Fly)
Cotton leaf discs were placed on agar in 24-well microtiter plates and sprayed with aqueous test solutions prepared from 10′000 ppm DMSO stock solutions. After drying the leaf discs were infested with adult white flies. The samples were checked for mortality 6 days after incubation.

Data set [7] relates to Spodoptera littoralis (Egyptian cotton leaf worm). The data set is described as follows: Example B1: Spodoptera littoralis, cotton leaf discs sprayed. The note with it: foliar, 72 h, application rate 200 ppm, L1 larvae, 3 days after infestation, read-out: control (at least one of mortality, anti-feedant effect, growth inhibition). The class given is in vivo. On the procedure: Example B1: Spodoptera Littoralis (Egyptian Cotton Leaf Worm)
Cotton leaf discs were placed onto agar in 24-well microtiter plates and sprayed with aqueous test solutions prepared from 10′000 ppm DMSO stock solutions. After drying the leaf discs were infested with five L1 larvae. The samples were assessed for mortality, anti-feeding effect, and growth inhibition in comparison to untreated samples 3 days after infestation. Control of Spodoptera littoralis by a test sample is given when at least one of the categories mortality, anti-feedant effect, and growth inhibition is higher than the untreated sample.

Data set [8] has the same test system. As to the kind of experiment: Example B2: Spodoptera littoralis, systemic test via lettuce roots in agar. The note with it: 144 h, test rate 12.5 ppm, 6 days after infestation, read-out: effect in at least one of the three categories (mortality, anti-feeding, or growth inhibition). The data set is classed as in vivo. The text has this:
Example B2: Spodoptera Littoralis (Egyptian Cotton Leaf Worm)
Test compounds were applied by pipette from 10′000 ppm DMSO stock solutions into 24-well plates and mixed with agar. Lettuce seeds were placed onto the agar and the multi well plate was closed by another plate which contained also agar. After 7 days the compound was absorbed by the roots and the lettuce grew into the lid plate. The lettuce leaves were then cut off into the lid plate. Spodoptera eggs were pipetted through a plastic stencil onto a humid gel blotting paper and the lid plate was closed with it. The samples were assessed for mortality, anti-feedant effect and growth inhibition in comparison to untreated samples 6 days after infestation.

In the case of `CCS(=O)(=O)c1cc(C(F)(F)C#N)cnc1-c1nc2cc(C(F)(F)F)ncc2n1C` [Compound P15, 2-[5-ethylsulfonyl-6-[3-methyl-6-(trifluoromethyl)imidazo[4,5-c]pyridin-2-yl]-3-pyridyl]-2,2-difluoro-acetonitrile], the percent effect (mortality or growth inhibition) at 200 ppm in data set [1] and in [2] was no less than 80% in each case. The compound also yielded a mortality at 24 ppm in [3] of no less than 80%. The compound further gave a mortality at 200 ppm in data set [4] of no less than 80%.

For `CCC(C#N)(CC)c1cnc(-c2nc3cc(C(F)(F)F)ncc3n2C)c(S(=O)(=O)CC)c1` [Compound P3, 2-ethyl-2-[5-ethylsulfonyl-6-[3-methyl-6-(trifluoromethyl)imidazo[4,5-c]pyridin-2-yl]-3-pyridyl]butanenitrile], the percent effect (mortality or growth inhibition) at 200 ppm in [5] and in [2] was no less than 80% each time.

In the case of `CCOC(=O)C(C)(C#N)c1cnc(-c2nc3cc(C(F)(F)F)ncc3n2C)c(S(=O)(=O)CC)c1` (centres unmarked) [Compound P9, ethyl 2-cyano-2-[5-ethylsulfonyl-6-[3-methyl-6-(trifluoromethyl)imidazo[4,5-c]pyridin-2-yl]-3-pyridyl]propanoate], the percent effect (mortality or growth inhibition) at 200 ppm in [1] and in [5] was no less than 80% in each case.

Turning to `CCSc1cc(C(C)C#N)ccc1-c1nc2cc(C(F)(F)F)nnc2n1C` (centres unmarked) [Compound P13, 2-[3-ethylsulfanyl-4-[7-methyl-3-(trifluoromethyl)imidazo[4,5-c]pyridazin-6-yl]phenyl]propanenitrile], in data set [1], the percent effect (mortality or growth inhibition) at 200 ppm was no less than 80%.

As to `CCS(=O)(=O)c1cc(C(C#N)C(C)C)cnc1-c1nc2cc(C(F)(F)F)ncc2n1C` (centres unmarked) [Compound P10, 2-[5-ethylsulfonyl-6-[3-methyl-6-(trifluoromethyl)imidazo[4,5-c]pyridin-2-yl]-3-pyridyl]-3-methyl-butanenitrile], the percent effect (mortality or growth inhibition) at 200 ppm in data set [5] and in data set [2] was no less than 80% in each case. This compound yielded a mortality at 24 ppm in data set [3] of no less than 80%. The mortality at 200 ppm in data set [4] was no less than 80%.

As for `CCS(=O)(=O)c1cc(C(C)(C)C#N)ccc1-c1nc2cc(C(F)(F)F)nnc2n1C` [Compound P12, 2-[3-ethylsulfonyl-4-[7-methyl-3-(trifluoromethyl)imidazo[4,5-c]pyridazin-6-yl]phenyl]-2-methyl-propanenitrile], the percent effect (mortality or growth inhibition) at 200 ppm in data set [1], in data set [5] and in data set [2] was no less than 80% throughout. The mortality at 24 ppm in [3] was no less than 80%. For the same compound, the mortality at 200 ppm in [4] and in [6] was no less than 80% in each case.

Turning to `CCSc1cc(C(C)(C)C#N)ccc1-c1nc2cc(C(F)(F)F)nnc2n1C` [Compound P11, 2-[3-ethylsulfanyl-4-[7-methyl-3-(trifluoromethyl)imidazo[4,5-c]pyridazin-6-yl]phenyl]-2-methyl-propanenitrile], the percent effect (mortality or growth inhibition) at 200 ppm in [1] and in data set [2] was no less than 80% throughout. In addition, the mortality at 200 ppm in [6] is no less than 80%.

On to `CCS(=O)(=O)c1cc(C(C)(F)C#N)cnc1-c1nc2cc(C(F)(F)F)ncc2n1C` (centres unmarked) [Compound P18, 2-[5-ethylsulfonyl-6-[3-methyl-6-(trifluoromethyl)imidazo[4,5-c]pyridin-2-yl]-3-pyridyl]-2-fluoro-propanenitrile], for which the melting point lay in the range of 202 to 204 °C.

In the case of `CCSc1cc(C(C)(C)C#N)ccc1-c1nc2cc(C(F)(F)F)ncc2n1C` [Compound P16, 2-[3-ethylsulfanyl-4-[3-methyl-6-(trifluoromethyl)imidazo[4,5-c]pyridin-2-yl]phenyl]-2-methyl-propanenitrile], the percent effect (mortality or growth inhibition) at 200 ppm in [1] and in data set [2] was no less than 80% throughout.

In the case of `CCS(=O)(=O)c1cc(C(C)(C)C#N)cnc1-c1nc2cc(C(F)(F)F)nnc2n1C` [Compound P2, 2-[5-ethylsulfonyl-6-[7-methyl-3-(trifluoromethyl)imidazo[4,5-c]pyridazin-6-yl]-3-pyridyl]-2-methyl-propanenitrile], the percent control (mortality, anti-feedant effect or growth inhibition) at 200 ppm in data set [7] is no less than 80%. The percent effect (mortality or growth inhibition) at 200 ppm in data set [1], in [5] and in data set [2] was no less than 80% throughout. Besides, the percent effect (mortality, anti-feeding or growth inhibition) at 12.5 ppm in data set [8] was no less than 80%. The mortality at 24 ppm in [3] is no less than 80%. Besides, the mortality at 200 ppm in [4] and in data set [6] was no less than 80% in each case.

Regarding `CCS(=O)(=O)c1cc(C(C)(C#N)C#N)cnc1-c1nc2cc(C(F)(F)F)ncc2n1C` [Compound P1, 2-[5-ethylsulfonyl-6-[3-methyl-6-(trifluoromethyl)imidazo[4,5-c]pyridin-2-yl]-3-pyridyl]-2-methyl-propanedinitrile], the melting point was 222 to 223 °C.

Take `CCC(C#N)c1cnc(-c2nc3cc(C(F)(F)F)ncc3n2C)c(S(=O)(=O)CC)c1` (centres unmarked) [Compound P4, 2-[5-ethylsulfonyl-6-[3-methyl-6-(trifluoromethyl)imidazo[4,5-c]pyridin-2-yl]-3-pyridyl]butanenitrile]: the percent effect (mortality or growth inhibition) at 200 ppm in data set [5] and in data set [2] was no less than 80% each time. The compound also displayed a mortality at 200 ppm in data set [4] of no less than 80%.

As to `CCS(=O)(=O)c1cc(C(C)(C)C#N)cnc1-c1nc2cc(C(F)(F)F)ncc2n1C` [Compound P5, 2-[5-ethylsulfonyl-6-[3-methyl-6-(trifluoromethyl)imidazo[4,5-c]pyridin-2-yl]-3-pyridyl]-2-methyl-propanenitrile], the percent control (mortality, anti-feedant effect or growth inhibition) at 200 ppm in [7] is no less than 80%. Further, the percent effect (mortality or growth inhibition) at 200 ppm in data set [1], in data set [5] and in data set [2] was no less than 80% throughout. In [3], the mortality at 24 ppm was no less than 80%. In addition, the mortality at 200 ppm in data set [4] and in data set [6] was no less than 80% throughout.

In the case of `CCS(=O)(=O)c1cc(C(C)(C)C#N)cnc1-c1nc2cc(Br)ncc2n1C` [Compound P19, 2-[6-(6-bromo-3-methyl-imidazo[4,5-c]pyridin-2-yl)-5-ethylsulfonyl-3-pyridyl]-2-methyl-propanenitrile], the percent effect (mortality or growth inhibition) at 200 ppm in data set [1] was no less than 80%. The same compound yielded a mortality at 24 ppm in data set [3] of no less than 80%.

Compound `CCS(=O)(=O)c1cc(C(C)(C)C#N)cnc1-c1nc2cc(C(F)(F)C(F)(F)F)ncc2n1C` [Compound P20, 2-[5-ethylsulfonyl-6-[3-methyl-6-(1,1,2,2,2-pentafluoroethyl)imidazo[4,5-c]pyridin-2-yl]-3-pyridyl]-2-methyl-propanenitrile] had a melting point of 212 to 213 °C.

As for `CCS(=O)(=O)c1cc(C(C)C#N)cnc1-c1nc2cc(C(F)(F)F)ncc2n1C` (centres unmarked) [Compound P6, 2-[5-ethylsulfonyl-6-[3-methyl-6-(trifluoromethyl)imidazo[4,5-c]pyridin-2-yl]-3-pyridyl]propanenitrile], the percent effect (mortality or growth inhibition) at 200 ppm in data set [1] and in data set [2] was no less than 80% throughout. Further, the mortality at 24 ppm in data set [3] is no less than 80%.

By mortality is commonly meant the share of the test organisms that died. Low readings indicate more survivors, high ones fewer survivors. For orientation: melting point means the temperature of the solid-liquid transition.

(Values after patent publication US11440910B2, “Pesticidally active heterocyclic derivatives with sulfur containing substituents” (SYNGENTA PARTICIPATIONS AG, priority 2017, dated 2022).)
